From patent publication US12532886B2, “Method of killing microbes using C3-C5 n-alkyl-gamma-butyrolactams and antimicrobial compositions containing same” (Virox Technologies Inc., priority 2018, dated 2026)

Test system: M. smegmatis
Assay: ASTM E2197-02 test method, without soil load, against mycobacteria
Type: cell-based
Experimental: Solutions A, B and AA were prepared to test the antimicrobial activity of N-alkyl-gamma-butyrolactam, specifically N-butyl-gamma-butyrolactam and N-octyl-gamma-butyrolactam. These solutions were tested using the ASTM E2197-02 test method (5-minute contact time or 75 second contact time) without soil load, against hard-to-kill mycobacteria (M. smegmatis).
Solution B was also tested using ASTM E2197-02 test method (75 second contact time), without soil load, against mycobacteria (M. smegmatis) and achieved a log10 reduction of 0.11 (shown in the last row of Table 1.0).
Additional solutions were prepared to assess the antimicrobial activity of N-alkyl-gamma-butyrolactam, specifically N-butyl-gamma-butyrolactam, when combined with other antimicrobial agents in aqueous solution. These solutions are summarized in Tables 2.0, 2.1, and 2.2 below and tested using ASTM E2197-02 test method (75 second contact time), without soil load, against mycobacteria (M. smegmatis).

| Compound | Antimicrobial activity against M. smegmatis, 5 minutes contact time |
| --- | --- |
| CCCCN1CCCC1=O [N-butyl-gamma-butyrolactam] | possesses antimicrobial activity |
| CCCCCCCCN1CCCC1=O [N-octyl-gamma-butyrolactam] | no antimicrobial activity |
